By IC50 is commonly meant the concentration that inhibits the measured activity by half.

Data on twelve molecules can be found in article PMC11990662, “Synthesis and Evaluation of the Antiproliferative Activity of the Derivatives of 3,5-Diaryl-3,4-dihydro-2H-pyrrole-2-carboxylic Acids” (Molecules, 2025).

In experiment [1] the test system is MDA-MB-231 (triple negative human breast carcinoma). Nature of the experiment: MTT antiproliferative assay, MDA-MB-231. It is filed as cell-based. To be noted: for antiproliferative activity (in words): MDA-MB-231, preliminary experiments; for IC50: MDA-MB-231, MTT, 72 h. How it is done:
(§1) Antiproliferative activity of some compounds was evaluated on cell cultures derived from MDA-MB-231 (triple negative human breast carcinoma). […] This finding allowed us to further investigate the antiproliferative activity of selected compounds on additional tumor cell lines. We studied the influence of the stereochemical orientation of the substituents at C2 and C3 in substituted 3,4-dihydro-2H-pyrrole-2-carbonitriles. The antiproliferative activity of single diastereomers of some nitriles 4 and the amide cis-6m were assessed on multiple human cancer cell lines via the MTT assay. For these experiments, the following human cell lines were used: MCF-7 (luminal type A breast carcinoma), MD-MBA-231, H1299 (non-small-cell lung carcinoma cells), A549 (lung alveolar adenocarcinoma), HeLa (cervical cancer), HepG2 (hepatocellular carcinoma), HT-29 (colorectal adenocarcinoma) and PC3 (prostate adenocarcinoma). As a model of normal tissue, we used MCF-10A (non-tumorigenic epithelial cells of mammary gland). Table 5 and Table 6 present the values of concentration that inhibits cell viability to 50% (IC50) and selectivity index (SI = IC50(MCF-10A)/IC50(tumor cell line)).
(§2) The antiproliferative activity testing was performed on cell cultures from several human cancer cell lines the MTT-dye reduction assay, described by Mosmann. Cell lines were obtained from the American Type Cultures Collection (ATCC, Manassas, VA, USA). In this article we used the following cell lines: MCF-10A (ATCC, CRL-10317™) Non-tumorigenic epithelial cells of mammary gland, MCF-7 (ATCC, HTB-22™) Luminal type A breast carcinoma, MDA-MB-231 (ATCC, HTB-26™) Triple negative breast carcinoma, H1299 (ATCC, CRL-5803™) Non-small-cell lung carcinoma, A549 (ATCC, CRM-CCL-185™) Llung alveolar adenocarcinoma, HeLa (ATCC, CCL-2™) Cervical cancer, Hep G2 (ATCC, HB-8065™) Hepatocellular carcinoma, HT-29 (ATCC, HTB-38™) Colorectal adenocarcinoma, PC-3 (ATCC, CRL-1435™) Prostate adenocarcinoma. The cells were cultured in a cell culture laboratory at the Institute of Experimental Morphology, Pathology and Anthropology with a Museum—Bulgarian Academy of Sciences. They were cultured in Dulbecco’s Modified Eagle’s medium, high glucose (DMEM 4.5 g/L glucose), supplied with 10% fetal bovine serum and antibiotics in usual concentrations in a humidified atmosphere with 5% CO2 at 37.5 °C. In the case of MCF-10A cells, epidermal growth factor, insulin and cholera toxin were added in concentrations corresponding to the cell bank instructions. Cells were plated at a density of 1 × 10^3 cells per well in a 96-well flat-bottomed microplates and allowed to adhere for 24 h before treatment with the test compounds, dissolved in DMSO, and further diluted in culture medium to the final concentrations. A concentration ranges from 5 µM to 4.1 mM was tested over an incubation period of 72 h. Cisplatin (Sigma-Aldrich) was used as a positive control in a concentration range 50 nM to 100 µM. All experiments were performed in triplicates. The MTT-formazan absorption was measured using a microplate reader (TECAN, Sunrise^TM, Groedig/Salzburg, Austria) at 570 nm. Antiproliferative activities were expressed as IC50 values (concentrations required for 50% inhibition of cell growth), calculated using non-linear regression analysis (GraphPad Prizm8 Software). The statistical analysis involved One-way ANOVA followed by Bonferroni’s post hoc test p < 0.05 was accepted as the lowest level of statistical significance.
(Tetrazolium dyes change colour on reduction, which living cells bring about.)

Experiment [2] has as its system A549 (lung alveolar adenocarcinoma). The experiment in a line: MTT antiproliferative assay, A549. Type of experiment: cell-based, human. To be noted: 72 h. How it is done: as §1, §2
Experiment [3] concerns HT-29 (colorectal adenocarcinoma). The experiment in a line: MTT antiproliferative assay, HT-29. It is filed as cell-based, human. The following applies: HT-29, MTT, 72 h. How it is done: as §1, §2
Experiment [4] has as its system H1299 (non-small-cell lung carcinoma cells). The experiment in a line: MTT antiproliferative assay, H1299. It is filed as cell-based, human. How it is done: as §1, §2
The subject of the next experiment is HeLa (cervical cancer). The experiment in a line: MTT antiproliferative assay, HeLa. It is filed as cell-based, human. The following applies: 72 h. The protocol: as §1, §2
Experiment [5] has as its system HepG2 (hepatocellular carcinoma). The experiment in a line: MTT antiproliferative assay, HepG2. It is filed as cell-based, human. The following applies: 72 h. How it is done: as §1, §2
Experiment [6] concerns MCF-10A (non-tumorigenic epithelial cells of mammary gland). The experiment in a line: MTT antiproliferative assay, MCF-10A. Type of experiment: cell-based, human. To be noted: 72 h. How it is done: as §1, §2
For experiment [7], the system named is PC3 (prostate adenocarcinoma). Nature of the experiment: MTT antiproliferative assay, PC3. Type of experiment: cell-based, human. The following applies: 72 h. How it is done:
as §1, §2

The subject of experiment [8] is MCF-7 (luminal type A breast carcinoma). Nature of the experiment: MTT antiproliferative assay, MCF-7. It is filed as cell-based, human. The following applies: MCF-7, MTT, 72 h. The protocol:
as §1, §2

In the case of `COc1cc(O)c(C2=N[C@@H](C#N)[C@H](c3ccc(C)c(Br)c3)C2)c(OC)c1` (racemic) [trans-4o], the “antiproliferative activity (in words)” value in experiment [1] is listed as “very poor activity”.

As to `N.N.[Cl][Pt][Cl]` [Cisplatin, reference compound], the 50% inhibitory concentration (IC50) is 38.6 ± 4.7 µM in [2]; 8.2 ± 0.3 µM in experiment [3]; 5 ± 0.9 µM in [4] (72 h); 19.6 ± 3.2 µM in the experiment on HeLa (cervical cancer); 19.1 ± 0.4 µM in experiment [5]; 23.2 ± 1.4 µM in experiment [6]. In addition, the results for the IC50 in experiment [1], in experiment [7] and in [8] were 1.8 ± 0.1 µM, 3.4 ± 0.5 µM and 45.8 ± 3.2 µM, respectively.

As to `COc1cc(O)c(C2=N[C@@H](C#N)[C@H](c3ccc(C)c(F)c3)C2)c(OC)c1` (racemic) [trans-4m], the IC50 in [2] (Homo sapiens) is 32.2 ± 1.1 µM; in [3] (Homo sapiens), 28.1 ± 2 µM; in [4] (Homo sapiens, NCI-H1299, 72 h), 36.4 ± 2 µM; in the experiment on HeLa (cervical cancer) (Homo sapiens), 1170 ± 42 µM; in [5] (Homo sapiens), 44.6 ± 2.8 µM; in experiment [6] (Homo sapiens), 79.3 ± 2.5 µM. Besides, the IC50 in [1] (Homo sapiens) was determined as 717 ± 73 µM; in experiment [7] (Homo sapiens) it was 44.3 ± 5.4 µM; in experiment [8] (Homo sapiens, MCF7) it was 149 ± 12 µM.

On to `N#C[C@@H]1N=C(c2ccccc2)C[C@@H]1c1cccnc1` (racemic) [cis-4h], for which the IC50 in experiment [2] (Homo sapiens) was 311 ± 19 µM; in experiment [3] (Homo sapiens) it was 1640 ± 132 µM; in experiment [4] (Homo sapiens, NCI-H1299, 72 h), 2980 ± 62 µM; in the experiment with HeLa (cervical cancer) (Homo sapiens), 2220 ± 136 µM; in [5] (Homo sapiens), 3000 ± 107 µM; in experiment [6] (Homo sapiens), 2280 ± 178 µM. Moreover, the IC50 in experiment [1] (Homo sapiens) was above 4110 µM; in [7] (Homo sapiens), 1920 ± 70 µM; in [8] (Homo sapiens, MCF7) it was 1380 ± 255 µM.

For `COc1cc(O)c(C2=N[C@@H](C#N)[C@@H](c3ccc(C)c(Br)c3)C2)c(OC)c1` (racemic) [cis-4o], in [1] (Homo sapiens), inhibition was half-maximal at 35.9 µM (IC50).

In the case of `Cc1ccc(C2=N[C@@H](C#N)[C@H](c3ccccc3)C2)cc1` (relative stereo) [trans-4k, rel-(2R,3S)-5-(4-methylphenyl)-3-phenyl-3,4-dihydro-2H-pyrrole-2-carbonitrile], the IC50 in experiment [2] (Homo sapiens) came out at 11.7 ± 0.8 µM; in [3] (Homo sapiens), 136 ± 7.7 µM; in [4] (Homo sapiens, NCI-H1299, 72 h) it was 354 ± 15 µM; with HeLa (cervical cancer) (Homo sapiens), 84.1 ± 2.3 µM; in [5] (Homo sapiens), 159 ± 4.6 µM; in experiment [6] (Homo sapiens), 182 ± 5.8 µM. The IC50 came out at 313 ± 20 µM in experiment [1] (Homo sapiens); 121 ± 13 µM in experiment [7] (Homo sapiens); 568 ± 57 µM in experiment [8] (Homo sapiens, MCF7).

Consider `COc1ccc(C2=N[C@@H](C#N)[C@@H](c3ccccc3)C2)cc1` (racemic) [cis-4e], for which the IC50 turned out to be 341 ± 26 µM in experiment [2] (Homo sapiens); 308 ± 8 µM in experiment [3] (Homo sapiens); 840 ± 43 µM in experiment [4] (Homo sapiens, NCI-H1299, 72 h); 158 ± 6.5 µM in the experiment on HeLa (cervical cancer) (Homo sapiens); 554 ± 34 µM in experiment [5] (Homo sapiens); 427 ± 12 µM in experiment [6] (Homo sapiens). The IC50 is above 3620 µM in experiment [1] (Homo sapiens); 478 ± 58 µM in [7] (Homo sapiens); 1770 ± 232 µM in experiment [8] (Homo sapiens, MCF7).

As to `COc1cc(O)c(C2=N[C@@H](C#N)[C@@H](c3ccc(C)c(Cl)c3)C2)c(OC)c1` (racemic) [cis-4n], the IC50 in experiment [1] (Homo sapiens) came to 75.8 µM.

In the case of `Cc1ccc(C2=N[C@@H](C#N)[C@@H](c3ccccc3)C2)cc1` (racemic) [cis-4k], the IC50 was determined as 82.2 ± 5.8 µM in experiment [2] (Homo sapiens); 853 ± 46 µM in experiment [3] (Homo sapiens); 205 ± 6 µM in experiment [4] (Homo sapiens, NCI-H1299, 72 h); 169 ± 10 µM with HeLa (cervical cancer) (Homo sapiens); 235 ± 15 µM in [5] (Homo sapiens); 104 ± 6 µM in experiment [6] (Homo sapiens). Moreover, the IC50 is 2560 ± 107 µM in experiment [1] (Homo sapiens); 297 ± 25 µM in experiment [7] (Homo sapiens); 374 ± 6 µM in [8] (Homo sapiens, MCF7).

As to `COc1cc(O)c(C2=N[C@@H](C#N)[C@H](c3ccc(C)c(F)c3)C2)c(OC)c1` (relative stereo) [cis-4m, rel-(2R,3S)-3-(3-fluoro-4-methylphenyl)-5-(2-hydroxy-4,6-dimethoxyphenyl)-3,4-dihydro-2H-pyrrole-2-carbonitrile], the half-inhibitory concentration (IC50) in [2] stood at 97.6 ± 13 µM; in [3] it was 19.6 ± 1.8 µM; in [4] (72 h), 25.4 ± 2.3 µM; in the experiment on HeLa (cervical cancer) it was 224 ± 15 µM; in experiment [5] it was 117 ± 4.8 µM; in experiment [6], 170 ± 12 µM. Also, the IC50 is 16 ± 0.7 µM in experiment [1], 115 ± 4.8 µM in experiment [7] and 185 ± 26 µM in [8].

Take `COc1cc(O)c(C2=N[C@@H](C#N)[C@H](c3ccc(C)c(Cl)c3)C2)c(OC)c1` (racemic) [trans-4n]: the “antiproliferative activity (in words)” value in experiment [1] is on record as “very poor activity”.

In the case of `COc1cc(O)c(C2=N[C@@H](C(N)=O)[C@@H](c3ccc(C)c(F)c3)C2)c(OC)c1` [cis-6m], the concentration for half-maximal inhibition (IC50) came to 136 ± 5.4 µM in experiment [2] (Homo sapiens); 64.3 ± 4.8 µM in experiment [3] (Homo sapiens); 1880 ± 51 µM in experiment [4] (Homo sapiens, NCI-H1299, 72 h); 1180 ± 37 µM in the experiment on HeLa (cervical cancer) (Homo sapiens); 117 ± 6.2 µM in [5] (Homo sapiens); 429 ± 28 µM in experiment [6] (Homo sapiens). For the same molecule, the IC50 was 1990 ± 40 µM in [1] (Homo sapiens); 125 ± 7.6 µM in experiment [7] (Homo sapiens); 923 ± 37 µM in [8] (Homo sapiens, MCF7).
